pIC50: −log10 of the molar value. Values belong to the molecule of their own block, whether it stands above or below them.
What was measured:
P-selectin [1] = conditions: Larsen et al.; Erbe et al.; Aruffo et al.; cited from earlier work
P-selectin [2] = target: T1, P-selectin (Homo sapiens, UniProt P16109); assay: P-Selectin Adhesion Receptor Binding: cell-free ELISA, inhibition of P-selectin binding to immobilized sulfatides; conditions: immobilized sulfatide, pH 8.0
T1 construct: consists of the human lectin domain, the EGF domain, and two complement repeats of the human selectins; made in house
T1 sequence (P16109 with tags, fused parts or gaps limits assumed): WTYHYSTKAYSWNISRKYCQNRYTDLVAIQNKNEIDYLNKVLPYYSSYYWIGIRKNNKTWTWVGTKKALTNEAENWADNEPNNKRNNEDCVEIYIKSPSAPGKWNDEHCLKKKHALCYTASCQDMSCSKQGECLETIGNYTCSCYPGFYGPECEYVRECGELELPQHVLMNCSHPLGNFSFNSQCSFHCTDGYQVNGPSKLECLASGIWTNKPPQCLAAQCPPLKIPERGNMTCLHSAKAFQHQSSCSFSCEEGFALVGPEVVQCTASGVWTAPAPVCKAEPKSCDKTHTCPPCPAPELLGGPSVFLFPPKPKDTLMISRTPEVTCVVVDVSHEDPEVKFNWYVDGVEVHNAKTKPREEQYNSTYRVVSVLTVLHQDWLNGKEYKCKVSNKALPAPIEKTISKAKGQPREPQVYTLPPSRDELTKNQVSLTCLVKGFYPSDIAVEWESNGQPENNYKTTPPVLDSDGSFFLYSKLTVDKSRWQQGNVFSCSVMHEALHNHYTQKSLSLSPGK
Excerpt: 1. P-Selectin Adhesion Receptor Binding
P-selectin (GMP140, granule membrane protein-140, PADGEM, or CD62) is a calcium-dependent transmembrane protein found in alpha granules of endothelial cells and platelets. It is an inducible selectin produced on activated endothelium and platelets which recognize alpha(2-3)sialylated and alpha(1-3)fucosylated lactosaminoglycans which include the sequence, Lewis x (Zhou et al., J. Cell. Biol., (1991) 115 (2): 557-564) and sulfatides (3-sulfated galactosyl ceramides, Aruffo, et al., Cell (1991) 67: 35-44). P-selectin may be responsible for the initial adhesion events between endothelium and neutrophils as evidenced by leukocyte rolling induced by P-selectin in flow cells (Lawrence, M., and T. Springer, Cell (1991) 65: 859-873).
Based on the availability of soluble forms of P-selectin prepared as described by Aruffo, A., et al., Cell, 67, 35-44 (1991), a binding ELISA based assay modified from Foxall, et al., J., Cell Biol., 117, 895-902 (1992) was developed to measure inhibitors of P-selectin binding to immobilized sulfatides. Such inhibitors were tested in the assay described below.
0.1 ml of sulfatide (SIGMA) or lysosulfatide (SIGMA) each at 1 μg/ml in MeOH were added to the wells of a 96-well ELISA plate (ProBind, Falcon) and allowed to dry overnight at room temperature. The next day the antigen coated plates were blocked for 1.5 hours at room temperature with 5% BSA (ICN) in buffer containing 20mM Hepes and 0.15 M NaCl, pH 8.0. Wild type P-selectin and mutants thereof were first mixed with HRP-conjugated goat anti-human IgG (Fisher Scientific), serially diluted and then incubated for 30 minutes at 37° C. in buffer containing 20 mM Hepes, 0.15 M NaCl, 1% BSA and 0.8 mM CaCl2, pH 8.0 prior to addition to the BSA blocked plates. Following the 30 minute preincubation, the fusion protein-HRP conjugate immunocomplexes were incubated on the blocked antigen coated plates for 45 minutes at 37° C. in the presence or absence of the test compounds and then washed to remove any unbound proteins. Bound complexes were detected by addition of substrate buffer (95 mM NaOAc.3H2 O, 5 mM citric acid monohydrate, 1.4 mM urea/H2O2) containing 3, 3', 5, 5' Tetramethylbenzidine (SIGMA). Reactions were stopped by the addition of 3N sulfuric acid and the absorbance read on an ELISA reader at dual wavelengths 450 and 630 nm. The efficacy of these compounds was compared to that of sulfatide (positive control) or to lysosulfatide (negative control). The data is obtained as percent inhibition of specific binding [formula] and a plot of dose vs. percent inhibition of Rg binding is generated in which IC50 (μM) is calculated and reported as cell free data in Table 1.

P-selectin [3] = target: T1, P-selectin; assay: HL-60 Cell Binding to P-selectin Rg; type: cell-based; conditions: HL-60 cells binding to P-selectin Rg coated wells
Procedure: 2. HL-60 Cell Binding to P- and E-Selectin RG
Receptor globulin (Rg) Construction
The chimeric P-and E-selectin receptor globulin (Rg) consists of the human lectin domain, the EGF domain, and two complement repeats of the human selectins fused to the hinge, CH1 and CH2 domains of human IgG1. These proteins were prepared as described by Aruffo, et al., Cell (1991) 67: 35-44; Walz, et al., Science (1990) 250, 1132-1135.
Cell binding assay for Rg
The HL-60 cell line, obtained from the American Type Culture Collection, ATCC No. CCL240, was employed to investigate P-selectin Rg binding. Assays were done in 96-well tissue culture dishes. The wells were first coated with 0.5 ug goat anti-human Fc antiserum overnight, and nonspecific binding sites were blocked by incubation of the wells with 1% nonfat dry milk in phosphate buffered saline (PBS containing 0.9 mM CaCl2 and 0.8 mM MgSO4) for 30 minutes. The Rg was then bound to the anti Fc-coated wells by incubating 50 ng in 50 ul of PBS for two hours. Cells, washed twice and resuspended in PBS to remove traces of medium components, were labeled with 10 uM calcein acetoxy methyl ester for 30 minutes at 3×10^7 cells per ml at room temperature. Serum-containing medium (RPMI with 20% fetal calf serum) was added, and the cells washed, followed by resuspension in PBS and a further spin. The labeled cells, resuspended in PBS, were added to twice washed Rg-containing wells at 200,000 per well. Following a 30 minute incubation with slow shaking, the wells were aspirated and washed three times with PBS to remove unbound cells. To certain wells were added known numbers of cells for determination of a standard curve of fluorescent units per cell. The fluorescence on the plate was quantitated using a fluorescent plate reader. Following subtraction of a blank representing the binding of cells to non-Rg containing wells (<5000 cells), the specific binding to P- or E- selectin was determined.
Inhibitors of cell binding
Test compounds were prepared by dissolution to a final concentration of 20 mg/ml in dimethyl sulfoxide (DMSO), diluted in PBS to 2 mg/ml, and briefly sonicated prior to use. The Rg coated wells were preincubated at room temperature for 15 minutes with the inhibitor, and 200,000 cells were added to yield the final indicated inhibitor concentration in 160 ul of PBS. The data is obtained as percent inhibition of specific binding: [formula] and a plot of dose vs. percent inhibition of Rg binding is generated in which IC50 (μM) is calculated and reported in Table 1.

P-selectin [4] = conditions: Skinner et al.; cited from earlier work
P-selectin [5] = conditions: cells grown in the presence of sodium selenate; cited from earlier work

Molecule: sialyl-Le^x
P-selectin binding (in words) (P-selectin [1]): has been shown to bind

pIC50 (P-selectin [2]): 5.89
pIC50 (P-selectin [3]): 4.82
Molecule: CCCCCCCCCCCCC/C=C/[C@@H](OC(=O)c1ccccc1)[C@H](CO[C@@H]1O[C@H](COS(=O)(=O)O)[C@H](OC(C)=O)[C@H](OS(=O)(=O)O)[C@H]1OC(=O)c1ccccc1)NC(=O)CCCCCCCCCCCCCCC [Example 8, (2S,3R,4E)-3-Benzoyloxy-2-hexadecanoylamino-1-[2-O-benzoyl-4-O-acetyl-3,6-di-O-(sodiumoxysulfonyl)-β-D-galactopyranosyloxy]-4-octadecene]

pIC50 (P-selectin [2]): 5.40 to 6.22
pIC50 (P-selectin [3]): 4.35
Molecule: CCCCCCCCCCCCCCCCCCCCCCCC(=O)N[C@@H](CO[C@@H]1O[C@H](COS(=O)(=O)O)[C@H](OS(=O)(=O)O)[C@H](OC(=O)c2ccccc2)[C@H]1OC(=O)c1ccccc1)[C@@H](CCCCCCCCCCCCCCC)OC(=O)c1ccccc1 [Example 19, (2S,3R)-3-Benzoyloxy-1-[2,3-di-O-benzoyl-4,6-di-O-(sodiumoxysulfonyl)-β-D-galactopyranosyl-oxy]-2-tetracosanoylaminooctadecane]

Molecule: fucoidan
inhibition of P-selectin mediated adhesion (in words) (P-selectin [4]): inhibit P-selectin mediated adhesion

Molecule: O=[Se](=O)(O)O [sodium selenate]
inhibition of P-selectin binding to myeloid cell lines (in words) (P-selectin [5]): can be inhibited

Molecule: dextran sulfate
inhibition of P-selectin mediated adhesion (in words) (P-selectin [4]): inhibit P-selectin mediated adhesion

Molecule: heparin
inhibition of P-selectin mediated adhesion (in words) (P-selectin [4]): inhibit P-selectin mediated adhesion
